From US10144742B2 (Millennium Pharmaceuticals, Inc., priority 2014, dated 2018)
pIC50: −log10 of the molar value. Like-named read-outs stand apart in the source and are kept apart here.

What was measured:
[1] = biological target: hNAMPT protein (Homo sapiens (Human), UniProt P43490); assay: NAMPT enzyme assay (TR-FRET/HTRF, BodiPY ligand, anti 6His-Tb); type: binding; conditions: for pIC50: read-out: IC50; for inhibition at 1 µM: read-out: Percent Inhibition
Procedure, shortened: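 TR-FRET binding assay in which His-tagged human NAMPT with anti-6His-Tb is displaced by compound from a BodiPY ligand, incubated 1 h at rt in the dark. Excitation was at 320 nm, with the 520/486 nm emission ratio read. IC50 was fitted from inhibition relative to DMSO controls.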

[2] = test system: PC3 cells; assay: PC3 growth inhibition (Cell-titer glo, 72 hours); type: cell-based; conditions: Homo sapiens, PC-3; compound concentration 1.667 μM; PC3 cells, 72 hours, Cell-titer glo; read-out: Percent Inhibition (PC3 growth inhibition)
Procedure, shortened: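 PC3 cells in RPMI1640 seeded overnight at 37 °C, 5% CO2, then exposed to compound diluted in AIM serum-free medium for 72 h. Viability by CellTiter-Glo luminescence vs DMSO controls; single-concentration % remaining viability (1 μM or 1.667 μM), or GI50/LD50 from curves.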

[3] = NAMPT inhibition at compound concentration 1 μM
[4] = NAMPT inhibition, IC50 range class

Chain of hNAMPT protein (P43490 whole entry): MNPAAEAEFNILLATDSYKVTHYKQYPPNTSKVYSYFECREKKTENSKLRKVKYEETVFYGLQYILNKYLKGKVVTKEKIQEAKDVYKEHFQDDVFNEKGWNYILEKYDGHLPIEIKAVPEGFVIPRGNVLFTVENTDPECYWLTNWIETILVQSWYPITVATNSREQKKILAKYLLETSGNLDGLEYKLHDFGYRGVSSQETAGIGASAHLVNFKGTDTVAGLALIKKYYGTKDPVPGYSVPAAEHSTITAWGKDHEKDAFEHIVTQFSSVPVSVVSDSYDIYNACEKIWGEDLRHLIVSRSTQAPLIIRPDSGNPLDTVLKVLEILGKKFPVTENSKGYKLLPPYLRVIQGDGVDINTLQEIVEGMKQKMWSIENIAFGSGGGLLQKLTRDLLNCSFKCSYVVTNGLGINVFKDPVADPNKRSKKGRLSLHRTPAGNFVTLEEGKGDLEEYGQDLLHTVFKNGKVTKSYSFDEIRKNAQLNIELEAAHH

Structure (SMILES) | pIC50 ([1]; NAMPT IC50 range class) | inhibition at 1 µM ([1]; compound concentration 1 μM) | inhibition at 1.667 µM [2] | inhibition at 1 µM [1, 3] | pIC50 [1, 4]
COc1cc(-c2nc3cc(C(=O)NCCCc4ncc[nH]4)ccc3nc2OC(C)C)c(F)cn1 [Compound I-392, 3-(5-fluoro-2-methoxypyridin-4-yl)-N-[3-(1H-imidazol-2-yl)propyl]-2-isopropoxyquinoxaline-6-carboxamide] | 6.30 to 7.00 | 91% | 1% |  | 
N#Cc1ccc(Cl)c(-c2nc3cc(C(=O)NCCCc4ncc[nH]4)ccc3nc2-c2ccc(F)cc2)c1 [Compound I-393, 3-(2-chloro-5-cyanophenyl)-2-(4-fluorophenyl)-N-[3-(1H-imidazol-2-yl)propyl]quinoxaline-6-carboxamide] | > 7.00 | 98% | 2% |  | 
Cc1cncc(-c2nc3cc(C(=O)NCCCc4ncc[nH]4)ccc3nc2-c2ccc(F)cc2)c1 [Compound I-394, 2-(4-fluorophenyl)-N-[3-(1H-imidazol-2-yl)propyl]-3-(5-methylpyridin-3-yl)quinoxaline-6-carboxamide] | 6.30 to 7.00 | 74% | 3% |  | 
Cc1cccc(-c2nc3cc(C(=O)NCCCc4ncc[nH]4)ccc3nc2-c2ccc(F)cc2)c1 [Compound I-395, 2-(4-fluorophenyl)-N-[3-(1H-imidazol-2-yl)propyl]-3-(3-methylphenyl)quinoxaline-6-carboxamide] |  |  | 2% | 83% | 6.30 to 7.00
O=C(NCCCc1ncc[nH]1)c1ccc2nc(OCc3ccccn3)c(-c3ccc(F)cc3)nc2c1 [Compound I-396, 3-(4-fluorophenyl)-N-[3-(1H-imidazol-2-yl)propyl]-2-(pyridin-2-ylmethoxy)quinoxaline-6-carboxamide] |  |  | 2% | 98% | > 7.00
O=C(NCCCc1ncc[nH]1)c1ccc2nc(-c3ccc(F)cc3)c(-c3ccc(Cl)c(Cl)c3)nc2c1 [Compound I-397, 3-(3,4-dichlorophenyl)-2-(4-fluorophenyl)-N-[3-(1H-imidazol-2-yl)propyl]quinoxaline-6-carboxamide] |  |  | 2% | 97% | > 7.00
COc1cccc(-c2nc3cc(C(=O)NCCCc4ncc[nH]4)ccc3nc2-c2ccc(F)cc2)c1F [Compound I-398, 3-(2-fluoro-3-methoxyphenyl)-2-(4-fluorophenyl)-N-[3-(1H-imidazol-2-yl)propyl]quinoxaline-6-carboxamide] |  |  | 2% | 93% | > 7.00
O=C(NCCCc1ncc[nH]1)c1ccc2nc(-c3ccc(F)cc3)c(-c3cc(F)ccc3Cl)nc2c1 [Compound I-399, 3-(2-chloro-5-fluorophenyl)-2-(4-fluorophenyl)-N-[3-(1H-imidazol-2-yl)propyl]quinoxaline-6-carboxamide] |  |  | 1% | 95% | > 7.00
O=C(NCCCc1ncc[nH]1)c1ccc2nc(OC3CCCC3)c(-c3ccc(F)cc3)nc2c1 [Compound I-400, 2-(cyclopentyloxy)-3-(4-fluorophenyl)-N-[3-(1H-imidazol-2-yl)propyl]quinoxaline-6-carboxamide] |  |  | 2% | 97% | > 7.00
CS(=O)(=O)CCOc1nc2ccc(C(=O)NCCCc3ncc[nH]3)cc2nc1-c1ccc(F)cc1 [Compound I-401, 3-(4-fluorophenyl)-N-[3-(1H-imidazol-2-yl)propyl]-2-[2-(methylsulfonyl)ethoxy]quinoxaline-6-carboxamide] |  |  | 99% | 69% | 6.30 to 7.00
CCOc1nc2ccc(C(=O)NCCCc3ncc[nH]3)cc2nc1-c1ccc(Cl)cc1 [Compound I-402, 3-(4-chlorophenyl)-2-ethoxy-N-[3-(1H-imidazol-2-yl)propyl]quinoxaline-6-carboxamide] |  |  | 2% | 97% | > 7.00
CC(C)Oc1nc2ccc(C(=O)NCc3ccc4nccn4c3)cc2nc1-c1ccc(Cl)s1 [Compound I-403, 3-(5-chloro-2-thienyl)-N-(imidazo[1,2-a]pyridin-6-ylmethyl)-2-isopropoxyquinoxaline-6-carboxamide] |  |  | 0% | 89% | 6.30 to 7.00
O=C(NCCCc1ncc[nH]1)c1ccc2nc(OC3CC4(CCN4)C3)c(-c3ccc(F)cc3)nc2c1 (stereo not drawn) [Compound I-404, 2-(1-azaspiro[3.3]hept-6-yloxy)-3-(4-fluorophenyl)-N-[3-(1H-imidazol-2-yl)propyl]quinoxaline-6-carboxamide] |  |  | 1% | > 99% | > 7.00
O=C(NCCCc1ncc[nH]1)c1ccc2nc(CN3CCOCC3)c(-c3ccc(F)cc3)nc2c1 [Compound I-405, 3-(4-fluorophenyl)-N-[3-(1H-imidazol-2-yl)propyl]-2-(morpholin-4-ylmethyl)quinoxaline-6-carboxamide] |  |  | 3% | 72% | 6.30 to 7.00
O=C(NCCCc1ncc[nH]1)c1ccc2nc(OCC3CCOCC3)c(-c3ccc(F)cc3)nc2c1 [Compound I-406, 3-(4-fluorophenyl)-N-[3-(1H-imidazol-2-yl)propyl]-2-(tetrahydro-2H-pyran-4-ylmethoxy)quinoxaline-6-carboxamide] |  |  | 2% | > 99% | > 7.00
N#CC1(COc2nc3ccc(C(=O)NCCCc4ncc[nH]4)cc3nc2-c2ccc(F)cc2)CCC1 [Compound I-407, 2-[(1-cyanocyclobutyl)methoxy]-3-(4-fluorophenyl)-N-[3-(1H-imidazol-2-yl)propyl]quinoxaline-6-carboxamide] |  |  | 2% | > 99% | > 7.00
O=C(NCc1cn2cccnc2n1)c1ccc2nc(-c3ccc(F)cc3)c(-c3ccc(F)cc3)nc2c1 [Compound I-408, 2,3-bis(4-fluorophenyl)-N-(imidazo[1,2-a]pyrimidin-2-ylmethyl)quinoxaline-6-carboxamide] |  |  | > 99% | 85% | 6.30 to 7.00
O=C(NCCCc1ncc[nH]1)c1ccc2nc(OCc3cccnc3)c(-c3ccc(F)cc3)nc2c1 [Compound I-409, 3-(4-fluorophenyl)-N-[3-(1H-imidazol-2-yl)propyl]-2-(pyridin-3-ylmethoxy)quinoxaline-6-carboxamide] |  |  | 2% | 98% | > 7.00
O=C(NCCCc1ncc[nH]1)c1ccc2nc(-c3ccc(F)cc3)c(-c3cc(Cl)cnc3F)nc2c1 [Compound I-410, 3-(5-chloro-2-fluoropyridin-3-yl)-2-(4-fluorophenyl)-N-[3-(1H-imidazol-2-yl)propyl]quinoxaline-6-carboxamide] |  |  | 2% | 98% | 6.30 to 7.00
COCC(COC)Oc1nc2ccc(C(=O)NCCCc3ncc[nH]3)cc2nc1-c1ccc(F)cc1 [Compound I-411, 2-[(1,3-dimethoxypropan-2-yl)oxy]-3-(4-fluorophenyl)-N-[3-(1H-imidazol-2-yl)propyl]quinoxaline-6-carboxamide] |  |  | 2% | 97% | 6.30 to 7.00
O=C(NCCCc1ncc[nH]1)c1ccc2nc(-c3ccc(F)cc3)c(-c3cc4ccccc4s3)nc2c1 [Compound I-412, 3-(1-benzothiophen-2-yl)-2-(4-fluorophenyl)-N-[3-(1H-imidazol-2-yl)propyl]quinoxaline-6-carboxamide] |  |  | 6% | 96% | 6.30 to 7.00
Cc1nccn1-c1nc2ccc(C(=O)NCCCc3ncc[nH]3)cc2nc1-c1ccc(F)cc1 [Compound I-413, 3-(4-fluorophenyl)-N-[3-(1H-imidazol-2-yl)propyl]-2-(2-methyl-1H-imidazol-1-yl)quinoxaline-6-carboxamide] |  |  | 3% | 80% | 6.30 to 7.00
CC(C)Oc1nc2ccc(C(=O)NCCCc3ncc[nH]3)cc2nc1-c1cc(C#N)ccc1F [Compound I-414, 3-(5-cyano-2-fluorophenyl)-N-[3-(1H-imidazol-2-yl)propyl]-2-isopropoxyquinoxaline-6-carboxamide] |  |  | 1% | 95% | > 7.00
COc1ccc(-c2nc3cc(C(=O)NCCCc4ncc[nH]4)ccc3nc2-c2ccc(F)cc2)c(F)c1 [Compound I-415, 3-(2-fluoro-4-methoxyphenyl)-2-(4-fluorophenyl)-N-[3-(1H-imidazol-2-yl)propyl]quinoxaline-6-carboxamide] |  |  | 2% | 75% | 6.30 to 7.00
C#Cc1ccc(-c2nc3cc(C(=O)NCCCc4ncc[nH]4)ccc3nc2-c2ccc(F)cc2)cc1 [Compound I-416, 3-(4-ethynylphenyl)-2-(4-fluorophenyl)-N-[3-(1H-imidazol-2-yl)propyl]quinoxaline-6-carboxamide] |  |  | 2% | 76% | 6.30 to 7.00
O=C(NCCCc1ncc[nH]1)c1ccc2nc(-c3ccc(F)cc3)c(-c3ccc4nccn4c3)nc2c1 [Compound I-417, 2-(4-fluorophenyl)-N-[3-(1H-imidazol-2-yl)propyl]-3-(imidazo[1,2-a]pyridin-6-yl)quinoxaline-6-carboxamide] |  |  | 2% | 81% | 6.30 to 7.00
O=C(NCCCc1ncc[nH]1)c1ccc2nc(-n3cncn3)c(-c3ccc(F)cc3)nc2c1 [Compound I-418] |  |  | 3% | 60% | 6.00 to 6.30
